In patent publication US20250026745A1 (Bluejay Therapeutics, Inc., priority 2023, published 2025):
Like-named read-outs stand apart in the source and are kept apart here.

Legend:
[1] = target: recombinant 17β-HSD13 protein (Homo sapiens (Human), UniProt Q7Z5P4); assay: 17β-HSD13 biochemical assay (NAD+/NADH Glo chemiluminescence); conditions: 17β-HSD13 50 nM, NAD+ 10 mM, β-estradiol 20 μM, 2 hours room temperature
Method in brief: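 Compounds preincubated 1 h at room temperature with 50 nM enzyme and 10 mM NAD+ (final) in 200 mM Tris pH 7.5, 0.01% Triton X-100, 0.02% BSA. Reaction started with 20 μM β-estradiol and run 2 hours at room temperature; NADH formation detected by NAD+/NADH-Glo chemiluminescence. IC50 from four-parameter logistic fit.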

[2] = Recovery of glucuronide Compound I-51 spiked into mouse liver tissue homogenate (30% ACN in water with 2% FA); assay type: in vitro ADME; conditions: parent Compound I-16 measured in I-51-spiked sample
Description: Compound I-51, a glucuronide of compound I-16, was used to develop methodology to ensure the glucuronide metabolite of the phenol could be stabilized in liver tissue to glucuronidase and other enzymatic cleavage in order to determine accurate levels of parent:glucuronide in the liver tissue. A known amount of Compound I-51 was spiked into a gram of mouse liver tissue where 2% formic acid (FA) was used with 30% acetonitrile (ACN) in water to stop all enzymatic glucuronidase activity.
Comparison of Treatment on ‘30% ACN in Water with 2% FA’ Homogenate Buffer for Compound I-51:
1). Prepared the homogenate buffer ‘30% ACN in water with 2% FA’ (including […] Compound 1-51), then homogenized with the liver tissue together. Due to the ratio of 1:9 (1 g tissue with 9 mL buffer), the final concentration was 900 ng/mL.
2). An aliquot of 20 μL sample were taken for analysis. Compound I-51 was Added after Homogenate:
1). The liver tissue was homogenized with the buffer ‘30% ACN in water with 2% FA’, then 2 μL 18 µg/mL Compound I-51 was spiked in 38 μL liver homogenate, the final concentration was 900 ng/mL. 2). An aliquot of 20 μL sample were taken for analysis. […]
The amount of parent was measured under these conditions Compound I-16 after generating a standard curve for Compound I-16.

[3] = target: HEK293 cells expressing 17β-HSD13 (Homo sapiens (Human), UniProt Q7Z5P4); assay: 17β-HSD13 cell-based assay (β-estradiol conversion, LC-MS/MS)
Description: HEK293 cells expressing 17β-HSD13 either stably or transiently were incubated with compounds for 60 min at 37° C. in a humidified incubator. After this first incubation step, β-estradiol was added to each well of the microtiter plate and incubated for 3 h at 37° C. in the humidified incubator. After treatment with β-Estradiol, 50 μL of supernatant was transferred to a 96-V plate containing 100 μL acetonitrile and centrifuged at 3900 rpm for 45 min. Finally, 50 μL of supernatant were taken for LC-MS/MS analysis. The chromatography part was run on a Xbridge 30 mm×2.1 mm column (Waters), at 40 degrees Celsius and a flow rate of 0.8 mL/min for 5 min, while the MS was done on a Q Exactive Orbitrap (Fisher Scientific) in Target SIM mode and negative polarity with a spray voltage of 3.5 kV. EC50 values were determined with GraphPad Prism®, where log-transformed concentration values and the inhibition data were fitted to a four-parameter logistic equation. Y=Bottom+(Top−Bottom)/(1+10^((Log EC50−X)*Hill Slope)). The original, % control, or % inhibition data are represented by Y along with their minimal (Bottom) and maximal (Top) values. The inhibitor concentration is represented by X, EC50 is the concentration at 50% maximal value, and Hill Slope is the slope factor.

[4] = cited from earlier work
[5] = HEK293 cells stably expressing 17β-HSD13 (footnote b), read-out: EC50, nM Stable
[6] = HEK293 cells transiently expressing 17β-HSD13 (footnote a), read-out: EC50, nM Transient

Chain of HEK293 cells expressing 17β-HSD13 (Q7Z5P4 20-300): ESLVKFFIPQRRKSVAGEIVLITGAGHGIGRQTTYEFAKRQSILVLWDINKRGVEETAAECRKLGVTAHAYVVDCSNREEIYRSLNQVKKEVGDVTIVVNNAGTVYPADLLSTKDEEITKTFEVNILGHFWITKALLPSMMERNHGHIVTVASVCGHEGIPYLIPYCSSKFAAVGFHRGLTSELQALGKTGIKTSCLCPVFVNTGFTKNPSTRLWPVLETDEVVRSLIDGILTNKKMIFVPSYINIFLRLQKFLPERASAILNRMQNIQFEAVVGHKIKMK
Chain of recombinant 17β-HSD13 protein (Q7Z5P4 20-300): as above

Compound	IC50 [1]	Calculated Concentration (ng/mL) of parent ([2]; after homogenate)	Calculated Concentration (ng/mL) of parent ([2]; before homogenate)	EC50 [3, 5]	EC50 [3, 6]	glucuronidation / in vivo clearance [4]
O=C1N(CC(F)(F)F)C(=O)C2(CC2)N1Cc1nnc(-c2ccc(F)c(O)c2Cl)s1 [Compound I-16, 4-((5-(2-chloro-4-fluoro-3-hydroxyphenyl)-1,3,4-thiadiazol-2-yl)methyl)-6-(2,2,2-trifluoroethyl)-4,6-diazaspiro[2.4]heptane-5,7-dione]	12.9 ± 2.43 nM	5.237 ng/mL	5.618 ng/mL	37.1 nM	107 nM	
CCN1C(=O)N(Cc2nnc(-c3cc(O)cc(C(F)(F)F)c3)s2)C2(CC2)C1=O [Compound I-22, 6-ethyl-4-((5-(3-hydroxy-5-(trifluoromethyl)phenyl)-1,3,4-thiadiazol-2-yl)methyl)-4,6-diazaspiro[2.4]heptane-5,7-dione]	41 ± 3.9 nM			144 nM		
CCn1c(=O)c(C)cn(Cc2ccc(-c3ccc(F)c(O)c3F)s2)c1=O [BI-3231]						prone to rapid glucuronidation on the phenol moiety leading to fast in vivo clearance
O=C1N(Cc2ccccc2)C(=O)C2(CC2)N1Cc1nnc(-c2ccc(F)c(O)c2F)s1 [Compound I-20, 6-benzyl-4-((5-(2,4-difluoro-3-hydroxyphenyl)-1,3,4-thiadiazol-2-yl)methyl)-4,6-diazaspiro[2.4]heptane-5,7-dione]	2.28 ± 0.933 nM			11.6 nM		
O=C1N(C(c2ccc(F)cc2F)C(F)(F)F)C(=O)C2(CC2)N1Cc1nnc(-c2ccc(F)c(O)c2Cl)s1 (single isomer, unassigned) [Compound I-54A]	0.857 ± 0.153 nM			5.63 ± 0.961 nM		
CCN1C(=O)C(C)N(Cc2nnc(-c3ccc(F)c(O)c3F)s2)C1=O (stereo not shown) [Compound I-3, 1-((5-(2,4-difluoro-3-hydroxyphenyl)-1,3,4-thiadiazol-2-yl)methyl)-3-ethyl-5-methylimidazolidine-2,4-dione]	86.1 nM				175 nM	
C[C@H](c1ccccc1)N1C(=O)N(Cc2nnc(-c3ccc(F)c(O)c3F)s2)C2(CC2)C1=O [Compound I-82, (R)-4-((5-(2,4-difluoro-3-hydroxyphenyl)-1,3,4-thiadiazol-2-yl)methyl)-6-(1-phenylethyl)-4,6-diazaspiro[2.4]heptane-5,7-dione]	1.76 ± 0.26 nM			8.42 nM		
CCN1C(=O)N(Cc2nnc(-c3ccc(Cl)c(O)c3Cl)s2)C2(CC2)C1=O [Compound I-9, 4-((5-(2,4-dichloro-3-hydroxyphenyl)-1,3,4-thiadiazol-2-yl)methyl)-6-ethyl-4,6-diazaspiro[2.4]heptane-5,7-dione]	150 nM				960 nM	
O=C1N(Cc2ccccc2)C(=O)C2(CC2)N1Cc1nnc(-c2cc(C(F)(F)F)cc(O)c2F)s1 [Compound I-55, 6-benzyl-4-((5-(2-fluoro-3-hydroxy-5-(trifluoromethyl)phenyl)-1,3,4-thiadiazol-2-yl)methyl)-4,6-diazaspiro[2.4]heptane-5,7-dione]	2.14 nM			29.2 nM		
O=C1N(Cc2ccccc2)C(=O)C2(CC2)N1Cc1nnc(-c2cc(C(F)(F)F)c(F)c(O)c2F)s1 [Compound I-57, 6-benzyl-4-((5-(2,4-difluoro-3-hydroxy-5-(trifluoromethyl)phenyl)-1,3,4-thiadiazol-2-yl)methyl)-4,6-diazaspiro[2.4]heptane-5,7-dione]	2.46 nM			52.7 nM		
6-cyclopropyl-4-[[5-(2,4-difluoro-3-hydroxy-phenyl)-1,3,4-thiadiazol-2-yl]methyl]-4,6-diazaspiro[2.4]heptane-5,7-dione [Compound I-41]	4.15 nM			18.9 nM		
Cc1c(-c2nnc(CN3C(=O)N([C@@H](c4ccccc4)C(F)(F)F)C(=O)C34CC4)s2)ccc(F)c1O [Compound I-91, (S)-4-((5-(4-fluoro-3-hydroxy-2-methylphenyl)-1,3,4-thiadiazol-2-yl)methyl)-6-(2,2,2-trifluoro-1-phenylethyl)-4,6-diazaspiro[2.4]heptane-5,7-dione]	4 nM			108 nM		
O=C1N([C@@H](c2ccccc2)C(F)(F)F)C(=O)C2(CC2)N1Cc1nnc(-c2ccc(F)c(O)c2F)s1 [Compound I-99A, 4-[[5-(2,4-difluoro-3-hydroxy-phenyl)-1,3,4-thiadiazol-2-yl]methyl]-6-[(1S)-2,2,2-trifluoro-1-phenyl-ethyl]-4,6-diazaspiro[2.4]heptane-5,7-dione]	1.17 ± 0.185 nM			4.95 ± 0.0122 nM		
CCN1C(=O)N(Cc2nnc(-c3ccc(F)c(O)c3F)s2)C2(CC2)C1=O [Compound I-7, 4-((5-(2,4-difluoro-3-hydroxyphenyl)-1,3,4-thiadiazol-2-yl)methyl)-6-ethyl-4,6-diazaspiro[2.4]heptane-5,7-dione]	16.6 ± 8.74 nM				18.8 nM	
CCN1C(=O)N(Cc2nnc(-c3cc(C(F)(F)F)cc(O)c3F)s2)C2(CC2)C1=O [Compound I-14, 6-ethyl-4-[[5-[2-fluoro-3-hydroxy-5-(trifluoromethyl)phenyl]-1,3,4-thiadiazol-2-yl]methyl]-4,6-diazaspiro[2.4]heptane-5,7-dione]	9.6 nM			125 nM		
O=C1N(Cc2ccccc2)C(=O)C2(CC2)N1Cc1nnc(-c2ccc(F)c(O)c2Cl)s1 [Compound I-35, 6-benzyl-4-((5-(2-chloro-4-fluoro-3-hydroxyphenyl)-1,3,4-thiadiazol-2-yl)methyl)-4,6-diazaspiro[2.4]heptane-5,7-dione]	5.33 nM			40.9 nM		
O=C1N(CC(F)(F)F)C(=O)C2(CC2)N1Cc1nnc(-c2ccc(F)c(O)c2F)s1 [Compound I-15, 4-((5-(2,4-difluoro-3-hydroxyphenyl)-1,3,4-thiadiazol-2-yl)methyl)-6-(2,2,2-trifluoroethyl)-4,6-diazaspiro[2.4]heptane-5,7-dione]	8.07 ± 1.77 nM			40.9 ± 25 nM		
O=C1N([C@@H](c2ccc(-c3ccc(F)cc3)cc2F)C(F)(F)F)C(=O)C2(CC2)N1Cc1nnc(-c2ccc(F)c(O)c2F)s1 [Compound I-97, (S)-4-((5-(2,4-difluoro-3-hydroxyphenyl)-1,3,4-thiadiazol-2-yl)methyl)-6-(1-(3,4′-difluoro-[1,1′-biphenyl]-4-yl)-2,2,2-trifluoroethyl)-4,6-diazaspiro[2.4]heptane-5,7-dione]	0.79 nM			4.66 nM		
C[C@@H](c1ccccc1)N1C(=O)N(Cc2nnc(-c3ccc(F)c(O)c3F)s2)C2(CC2)C1=O [Compound I-83, (S)-4-((5-(2,4-difluoro-3-hydroxyphenyl)-1,3,4-thiadiazol-2-yl)methyl)-6-(1-phenylethyl)-4,6-diazaspiro[2.4]heptane-5,7-dione]	2 ± 0.588 nM			10.4 nM		
